ChEMBL document CHEMBL1154822, “Synthesis and antiproliferative activity of 7-azaindirubin-3'-oxime, a 7-aza isostere of the natural indirubin pharmacophore” (J Nat Prod, 2009)

Assays:
Format in all cases: functional
MDA-MB-468 = experiment: Cytotoxicity against human MDA-MB-468 cells assessed as cell growth at 1 uM after 1 to 11 days by MTT assay; conditions: read-out: Activity
SNB-75 = experiment: Cytotoxicity against human SNB75 cells assessed as cell growth at 10 uM after 1 to 11 days by MTT assay; conditions: read-out: Activity
M14 = experiment: Cytotoxicity against human M14 cells assessed as cell growth at 100 uM after 1 to 11 days by MTT assay; conditions: read-out: Activity
TK-10 = experiment: Cytotoxicity against human TK10 cells assessed as cell growth at 10 uM after 1 to 11 days by MTT assay; conditions: read-out: Activity
K562 [1] = experiment: Cytotoxicity against human K562 cells assessed as cell growth at 100 uM after 1 to 11 days by MTT assay; conditions: read-out: Activity
NCI-H226 = experiment: Cytotoxicity against human NCI-H226 cells assessed as cell growth at 100 uM after 1 to 11 days by MTT assay; conditions: read-out: Activity
SNB-19 = experiment: Cytotoxicity against human SNB19 cells assessed as cell growth at 100 uM after 1 to 11 days by MTT assay; conditions: read-out: Activity
RXF 393 = experiment: Cytotoxicity against human […] cells assessed as cell growth at 100 uM after 1 to 11 days by MTT assay; conditions: read-out: Activity
NCI-H322M = experiment: Cytotoxicity against human NCI-H322M cells assessed as cell growth at 1 mM after 1 to 11 days by MTT assay; conditions: read-out: Activity
HOP-92 = experiment: Cytotoxicity against human HOP92 cells after 1 to 11 days by MTT assay
OVCAR-3 = experiment: Cytotoxicity against human OVCAR-3 cells after 1 to 11 days by MTT assay
K562 [2] = experiment: Cytotoxicity against human K562 cells assessed as cell growth at 0.1 uM after 1 to 11 days by MTT assay; conditions: read-out: Activity
UACC-257 = experiment: Cytotoxicity against human UACC257 cells assessed as cell growth at 0.1 uM after 1 to 11 days by MTT assay; conditions: read-out: Activity
NCI/ADR-RES = experiment: Cytotoxicity against human NCI/ADR-RES cells assessed as cell growth at 0.1 uM after 1 to 11 days by MTT assay; conditions: read-out: Activity
[3] = read-out: LC50 (the source's name)

O=C1Nc2ncccc2/C1=C1/Nc2ccccc2/C1=N\O
growth at 1 µM (MDA-MB-468): 75%
growth at 10 µM (SNB-75): 86%
growth at 100 µM (M14): 46%
growth at 10 µM (TK-10): 91%
growth at 100 µM (K562 [1]): 39%
growth at 100 µM (NCI-H226): -5%
growth at 100 µM (SNB-19): 78%
growth at 100 µM (RXF 393): -9%
growth at 1000 µM (NCI-H322M): 12%
GI50 (HOP-92): 2.97 µM
TGI (HOP-92): > 100 µM
CC50 (HOP-92; [3]): > 100 µM
GI50 (OVCAR-3): > 100 µM
TGI (OVCAR-3): > 100 µM
CC50 (OVCAR-3; [3]): > 100 µM
growth at 0.1 µM (K562 [2]): 88%
growth at 0.1 µM (UACC-257): 98%
growth at 0.1 µM (NCI/ADR-RES): 99%
